Measured values reported in patent publication US6794386B2, “β-amino acid compounds as integrin antagonists” (Bayer Aktiengesellschaft, priority 2000, dated 2004).

Biological target: T1, VLA-4 (Homo sapiens, UniProt P05556+P13612)
T1 construct: host or cells: Jurkat clone E6-1
Experiment: Adhesion of Jurkat cells to immobilized VCAM-1 (domains 1-3)
Type: cell-based
Parameters: scale not given here
Settings: adhesion of CFSE-labeled Jurkat cells to recombinant human VCAM-1 (domains 1-3) coated plates; compounds as yielded by solid phase synthesis, purity about 40-90%
Protocol: In Vitro Assay: Adhesion of Jurkat Cells to Immobilized VCAM-1 (Domains 1-3).
Preparation of Fluorescence Labeled Jurkat Cells:
Jurkat cells (American Type Culture Collection, Clone E6-1, ATCC TIB-152) were cultured in RPMI 1640 medium (Nikken Bio Medical Laboratory, CM1101) supplemented with 10% fetal bovine serum (Hyclone, A-1119-L), 100 U/ml penicilin (Gibco BRL, 15140-122) and 100 μg/ml streptomycin (Gibco BRL, 15140-122) in a humidified incubator at 37° C. with 5% CO2.
Jurkat cells were incubated with phosphate balanced solution (PBS, Nissui, 05913) containing 25 μM of 5(-and-6)-carboxyfluorescein diacetate, succinimidyle ester (CFSE, Dojindo Laboratories, 345-06441) for 20 min at room temperature while gently swirling every 5 min. After centrifugation at 1000 rpm for 5 min, the cell pellet was resuspended with adhesion assay buffer at a cell density of 2×10^6 cells/ml. The adhesion assay buffer was composed of 24 mM Tris-HCl (pH 7.4), 137 mM NaCl, 27 mM KCl, 4 mM glucose, 0.1% bovine serum albumin (BSA, Sigma, A9647) and 2 mM MnCl2.
Preparation of VCAM-1 (Extracellular Domains 1-3):
Complementary DNA (cDNA) encoding 7-domain form of VCAM-1 (GenBank accession #M60335) was obtained using Rapid-Screen™ cDNA library panels (OriGene Technologies, Inc) at Takara Gene Analysis Center (Shiga, Japan). The primers used were 5′-CCAAGGCAGAGTACGCAAAC-3′ (sence) and 5′-TGGCAGGTATTATTAAGGAG-3′ (antisense). PCR amplification of the 3-domain VCAM-1 cDNA was perform using Pfu DNA polymerase (Stratagene) with the following sets of primers: (U-VCAMd1-3) 5′-CCATATGGTACCTGATCAATTTAAAATCGAGACCACCCCAGAA-3′; (L-VCAMd1-3) 5′-CCATATAGCAATCCTAGGTCCAGGGGAGATCTCAACAGTAAA-3′. PCR cycle was 94° C. for 45 sec, 55° C. for 45 sec, 72° C. for 2 min, repeating 15 cycles. After the purification of the PCR product, the fragment was digested with KpnI-AvrII. The digested fragment was ligated into pBluescript IISK(−) (Strategene), which was linealized by digesting with KpnI-XhoI. The ligation was followed by transformation to a Dam/Dcm methylase-free E. coli strain SCS110 (Strategene) to create the donor plasmid pH7. To direct VCAM-1 molecule into the insect cell secretory pathway, the VCAM-1 coding sequence was fused to signal peptide sequence of honeybee melittin. The resulting melittin-VCAM fusion was placed in correct orientation to the baculoviris polyhedrin promoter. Baculovirus transfer vector containing first 3-domain form VCAM-1 (pH10) was constructed by ligation of 0.9 kb fragment from AvrII/Klenow/BclI digests of pH7 into SalI/Klenow/BamHI digests of pMelBacB (Invitrogen). Recombinant baculovirus was generated by using Bac-N-Blue™ Transfection kit (Invitrogen) according to the manufacture's instruction. The recombinant virus was amplified by infection to High-Five™ insect cells for 5-6 days, and virus titer was determined by plaque assay.
High-Five™ insect cells were pelleted in a 225 ml conical tube by centrifugation at 1000 rpm for 5 min After discarding the supernatant, the pellet was resuspended in 1.5×10^9 pfu (MOI=5) of high-titer virus solution, followed by incubation for 1.5 hours at room temperature. The cells were pelleted again and washed once in fresh Express Five™ serum free medium. The cells were pelleted again and finally, resuspended in 200 ml of fresh Express Five™ medium, transferred to a 1,000 ml shaker flask, and incubated in a shaker at 27° C., 130 rpm, for 48 hours before the culture supernatant was collected. The purification of 3-domain form of VCAM-1 from the culture supernatant was performed by one-step anion exchange chromatography. Protein concentration was determined by using Coomassie protein assay reagent (Pierce) according to the manufacture's instruction.
Preparation of Microtiter Plates:
Recombinant human VCAM-1 (extracellular domains 1-3) was dissolved at 0.5 μg/ml in PBS. […]

T1 sequence (P13612 34-1032): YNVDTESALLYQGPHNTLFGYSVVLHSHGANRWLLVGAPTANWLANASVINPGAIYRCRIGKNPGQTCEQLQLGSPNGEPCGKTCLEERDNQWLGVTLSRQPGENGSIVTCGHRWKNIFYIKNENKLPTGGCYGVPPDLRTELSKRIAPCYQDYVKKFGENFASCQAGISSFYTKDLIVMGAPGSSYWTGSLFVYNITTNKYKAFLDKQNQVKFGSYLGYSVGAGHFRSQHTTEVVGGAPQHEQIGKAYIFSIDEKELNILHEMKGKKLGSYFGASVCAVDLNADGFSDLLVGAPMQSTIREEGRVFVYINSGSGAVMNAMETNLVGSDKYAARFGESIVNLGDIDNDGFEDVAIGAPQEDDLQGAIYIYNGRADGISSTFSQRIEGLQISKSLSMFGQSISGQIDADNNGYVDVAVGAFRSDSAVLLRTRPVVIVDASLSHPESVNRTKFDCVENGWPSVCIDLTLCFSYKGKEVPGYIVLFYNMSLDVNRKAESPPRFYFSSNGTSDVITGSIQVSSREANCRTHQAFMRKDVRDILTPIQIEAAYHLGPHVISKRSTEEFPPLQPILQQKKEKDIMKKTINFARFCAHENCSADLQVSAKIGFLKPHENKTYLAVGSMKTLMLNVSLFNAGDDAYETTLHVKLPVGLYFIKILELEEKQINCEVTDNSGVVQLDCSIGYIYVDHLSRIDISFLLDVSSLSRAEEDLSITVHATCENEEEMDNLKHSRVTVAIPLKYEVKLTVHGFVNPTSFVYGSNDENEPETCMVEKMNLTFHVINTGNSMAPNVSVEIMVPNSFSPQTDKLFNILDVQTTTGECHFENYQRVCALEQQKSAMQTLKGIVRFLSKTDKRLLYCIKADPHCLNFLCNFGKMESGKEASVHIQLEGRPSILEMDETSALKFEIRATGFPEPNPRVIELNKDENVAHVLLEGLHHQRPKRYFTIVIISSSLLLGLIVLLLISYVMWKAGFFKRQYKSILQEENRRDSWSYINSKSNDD
T1 sequence (P05556 21-798): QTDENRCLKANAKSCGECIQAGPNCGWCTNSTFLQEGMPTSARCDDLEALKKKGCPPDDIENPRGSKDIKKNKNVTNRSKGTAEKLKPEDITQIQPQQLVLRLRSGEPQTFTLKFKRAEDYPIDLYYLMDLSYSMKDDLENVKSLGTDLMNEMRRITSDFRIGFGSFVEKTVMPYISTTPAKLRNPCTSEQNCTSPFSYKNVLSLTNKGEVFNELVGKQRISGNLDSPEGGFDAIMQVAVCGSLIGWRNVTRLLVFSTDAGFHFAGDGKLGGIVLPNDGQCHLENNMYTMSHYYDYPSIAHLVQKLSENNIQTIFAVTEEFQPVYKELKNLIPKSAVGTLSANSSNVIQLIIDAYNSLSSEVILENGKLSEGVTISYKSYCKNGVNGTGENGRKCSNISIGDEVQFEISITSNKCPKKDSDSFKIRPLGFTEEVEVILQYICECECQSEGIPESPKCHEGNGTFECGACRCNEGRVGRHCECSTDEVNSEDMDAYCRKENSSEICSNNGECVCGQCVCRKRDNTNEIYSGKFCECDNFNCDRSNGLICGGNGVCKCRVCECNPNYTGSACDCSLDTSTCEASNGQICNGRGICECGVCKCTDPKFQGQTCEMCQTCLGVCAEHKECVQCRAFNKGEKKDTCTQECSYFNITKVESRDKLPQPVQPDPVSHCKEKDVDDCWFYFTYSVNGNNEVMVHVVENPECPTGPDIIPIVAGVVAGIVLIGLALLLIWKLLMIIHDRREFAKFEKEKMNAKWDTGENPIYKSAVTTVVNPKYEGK

IC50, B-C:
Cc1ccc(-c2ccc(C[C@H](NC(=O)C3CCCN(c4ncnc(N5CCNCC5)c4F)C3)C(=O)O)cc2)cc1 (some centres unmarked) [Example 2.9]

IC50, C-D:
Cc1ccccc1-c1ccc(C[C@H](NC(=O)C2CCCN(S(=O)(=O)c3ccccc3C(F)(F)F)C2)C(=O)O)cc1 (some centres unmarked) [Example 1.89]
COc1ccc(Cl)cc1S(=O)(=O)N1CCCC(C(=O)N[C@@H](Cc2ccc(-c3ccccc3C)cc2)C(=O)O)C1 (some centres unmarked) [Example 1.90]
Cc1ccccc1-c1ccc(C[C@H](NC(=O)C2CCCN(S(=O)(=O)Cc3ccccc3)C2)C(=O)O)cc1 (some centres unmarked) [Example 1.91]
Cc1ccccc1-c1ccc(C[C@H](NC(=O)C2CCCN(S(=O)(=O)c3cc(Cl)cc(Cl)c3)C2)C(=O)O)cc1 (some centres unmarked) [Example 1.92]
CC1(C)C2CCC1(CS(=O)(=O)N1CCCC(C(=O)N[C@@H](Cc3ccc(-c4ccc(Cl)cc4Cl)cc3)C(=O)O)C1)C(=O)C2 (some centres unmarked) [Example 1.93]
Cc1ccc(S(=O)(=O)N2CCCC(C(=O)N[C@@H](Cc3ccc(-c4ccc(Cl)cc4Cl)cc3)C(=O)O)C2)cc1 (some centres unmarked) [Example 1.94]
COC(=O)c1ccccc1S(=O)(=O)N1CCCC(C(=O)N[C@@H](Cc2ccc(-c3ccc(Cl)cc3Cl)cc2)C(=O)O)C1 (some centres unmarked) [Example 1.95]
O=C(N[C@@H](Cc1ccc(-c2ccc(Cl)cc2Cl)cc1)C(=O)O)C1CCCN(S(=O)(=O)c2ccc3ccccc3c2)C1 (some centres unmarked) [Example 1.96]
O=C(N[C@@H](Cc1ccc(-c2ccc(Cl)cc2Cl)cc1)C(=O)O)C1CCCN(S(=O)(=O)c2ccccc2C(F)(F)F)C1 (some centres unmarked) [Example 1.99]
COc1ccc(Cl)cc1S(=O)(=O)N1CCCC(C(=O)N[C@@H](Cc2ccc(-c3ccc(Cl)cc3Cl)cc2)C(=O)O)C1 (some centres unmarked) [Example 1.100]
O=C(N[C@@H](Cc1ccc(-c2ccc(Cl)cc2Cl)cc1)C(=O)O)C1CCCN(S(=O)(=O)Cc2ccccc2)C1 (some centres unmarked) [Example 1.101]
O=C(N[C@@H](Cc1ccc(-c2ccc(Cl)cc2Cl)cc1)C(=O)O)C1CCCN(S(=O)(=O)c2cc(Cl)cc(Cl)c2)C1 (some centres unmarked) [Example 1.102]
CC1(C)C2CCC1(CS(=O)(=O)N1CCCC(C(=O)N[C@@H](Cc3ccc(-c4cc(Cl)ccc4Cl)cc3)C(=O)O)C1)C(=O)C2 (some centres unmarked) [Example 1.103]
COC(=O)c1ccccc1S(=O)(=O)N1CCCC(C(=O)N[C@@H](Cc2ccc(-c3cc(Cl)ccc3Cl)cc2)C(=O)O)C1 (some centres unmarked) [Example 1.105]
O=C(N[C@@H](Cc1ccc(-c2cc(Cl)ccc2Cl)cc1)C(=O)O)C1CCCN(S(=O)(=O)c2ccc3ccccc3c2)C1 (some centres unmarked) [Example 1.106]
O=C(N[C@@H](Cc1ccc(-c2cc(Cl)ccc2Cl)cc1)C(=O)O)C1CCCN(S(=O)(=O)c2c(Cl)cccc2Cl)C1 (some centres unmarked) [Example 1.107]
COc1ccc(S(=O)(=O)N2CCCC(C(=O)N[C@@H](Cc3ccc(-c4cc(Cl)ccc4Cl)cc3)C(=O)O)C2)cc1OC (some centres unmarked) [Example 1.108]
O=C(N[C@@H](Cc1ccc(-c2cc(Cl)ccc2Cl)cc1)C(=O)O)C1CCCN(S(=O)(=O)c2ccccc2C(F)(F)F)C1 (some centres unmarked) [Example 1.109]
COc1ccc(Cl)cc1S(=O)(=O)N1CCCC(C(=O)N[C@@H](Cc2ccc(-c3cc(Cl)ccc3Cl)cc2)C(=O)O)C1 (some centres unmarked) [Example 1.110]
O=C(N[C@@H](Cc1ccc(-c2cc(Cl)ccc2Cl)cc1)C(=O)O)C1CCCN(S(=O)(=O)c2cc(Cl)cc(Cl)c2)C1 (some centres unmarked) [Example 1.111]
Cc1ccc(-c2ccc(C[C@H](NC(=O)C3CCCN(c4ncnc(NC5CCCCC5)c4F)C3)C(=O)O)cc2)cc1 (some centres unmarked) [Example 2.5]
Cc1ccc(-c2ccc(C[C@H](NC(=O)C3CCCN(c4ncnc(N5CCCCC5)c4F)C3)C(=O)O)cc2)cc1 (some centres unmarked) [Example 2.6]
Cc1ccc(-c2ccc(C[C@H](NC(=O)C3CCCN(c4ncnc(N5CCOCC5)c4F)C3)C(=O)O)cc2)cc1 (some centres unmarked) [Example 2.7]
Cc1ccc(-c2ccc(C[C@H](NC(=O)C3CCCN(c4ncnc(N(C)Cc5ccccc5)c4F)C3)C(=O)O)cc2)cc1 (some centres unmarked) [Example 2.8]
CCCNc1ncnc(N2CCCC(C(=O)N[C@@H](Cc3ccc(-c4ccc(C)cc4)cc3)C(=O)O)C2)c1F (some centres unmarked) [Example 2.10]
Cc1ccc(-c2ccc(C[C@H](NC(=O)C3CCCN(c4ncnc(NC5Cc6ccccc6C5)c4F)C3)C(=O)O)cc2)cc1 (some centres unmarked) [Example 2.11]
Cc1ccc(-c2ccc(C[C@H](NC(=O)C3CCCN(c4ncnc(NCCN5CCCC5)c4F)C3)C(=O)O)cc2)cc1 (some centres unmarked) [Example 2.12]
CCCCN(C)c1ncnc(N2CCCC(C(=O)N[C@@H](Cc3ccc(-c4ccc(C)cc4)cc3)C(=O)O)C2)c1F (some centres unmarked) [Example 2.13]
COc1ccc(-c2ccc(C[C@H](NC(=O)C3CCCN(c4ncnc(NCc5ccccn5)c4F)C3)C(=O)O)cc2)cc1 (some centres unmarked) [Example 2.14]
COc1ccc(-c2ccc(C[C@H](NC(=O)C3CCCN(c4ncnc(NC5CCCCC5)c4F)C3)C(=O)O)cc2)cc1 (some centres unmarked) [Example 2.15]

Same assay, conditions: adhesion of CFSE-labeled Jurkat cells to recombinant human VCAM-1 (domains 1-3) coated plates; compounds as yielded by solid phase synthesis, purity about 40-90%; read-out: IC50

IC50, 0.5 to 2 µM:
Cc1ccccc1-c1ccc(C[C@H](NC(=O)C2CCCN(S(=O)(=O)c3ccc4ccccc4c3)C2)C(=O)O)cc1 (some centres unmarked) [Example 1.87]

IC50, 2 to 10 µM:
COC(=O)c1ccccc1S(=O)(=O)N1CCCC(C(=O)N[C@@H](Cc2ccc(-c3ccccc3C)cc2)C(=O)O)C1 (some centres unmarked) [Example 1.86]
COc1ccc(S(=O)(=O)N2CCCC(C(=O)N[C@@H](Cc3ccc(-c4ccccc4C)cc3)C(=O)O)C2)cc1OC (some centres unmarked) [Example 1.88]
O=C(N[C@@H](Cc1ccc(-c2ccc(Cl)cc2Cl)cc1)C(=O)O)C1CCCN(S(=O)(=O)c2c(Cl)cccc2Cl)C1 (some centres unmarked) [Example 1.97]
COc1ccc(S(=O)(=O)N2CCCC(C(=O)N[C@@H](Cc3ccc(-c4ccc(Cl)cc4Cl)cc3)C(=O)O)C2)cc1OC (some centres unmarked) [Example 1.98]
Cc1ccc(-c2ccc(C[C@H](NC(=O)C3CCCN(c4ncnc(NCc5ccccn5)c4F)C3)C(=O)O)cc2)cc1 (some centres unmarked) [Example 2.4]

IC50, ≤ 0.5 µM:
Cc1ccc(S(=O)(=O)N2CCCC(C(=O)N[C@@H](Cc3ccc(-c4cc(Cl)ccc4Cl)cc3)C(=O)O)C2)cc1 (some centres unmarked) [Example 1.104]
O=C(N[C@@H](Cc1ccc(-c2cc(Cl)ccc2Cl)cc1)C(=O)O)C1CCCN(c2ncnc(NCc3ccccn3)c2F)C1 (some centres unmarked) [Example 2.1]
O=C(N[C@@H](Cc1ccc(-c2cc(Cl)ccc2Cl)cc1)C(=O)O)C1CCCN(c2ncnc(N3CCNCC3)c2F)C1 (stereo partly drawn) [Example 2.2, (2S)-3-(2′,5′-dichloro[1,1′-biphenyl]-4-yl)-2-[({1-[5-fluoro-6-(1-piperazinyl)-4-pyrimidinyl]-3-piperidinyl}carbonyl)amino]propanoic acid]
O=C(N[C@@H](Cc1ccc(-c2cc(Cl)ccc2Cl)cc1)C(=O)O)C1CCCN(c2ncnc(N3CCOCC3)c2F)C1 (stereo partly drawn) [Example 2.3, (2S)-3-(2′,5′-dichloro[1,1′-biphenyl]-4-yl)-2-[({1-[5-fluoro-6-(4-morpholinyl)-4-pyrimidinyl]-3-piperidinyl}carbonyl)amino]propanoic acid]
